In one experiment the test system is HCT116-MTAP-KO. Kind of experiment: Cell killing in HCT116 isogenic pair (Cell Titer-Glo viability), MTAP knock-out cells. The experiment is classed as cell-based, human. To be noted: Homo sapiens, HCT-116, 144 h, 6 days incubation, 0-10 μM, * = more than 50% viability inhibition at tested concentration without a full curve. From the text:
(§1) HCT116 cell line (ATCC, CCL-247) was isolated from the colon of an adult with colon cancer. It has a mutation in codon 13 of the ras proto-oncogene and can be used as a positive control for PCR assays of mutation in this codon. HCT116-MTAP-KO was knocked-out-MTAP-gene based HCT116, and a single clone was passed for this assay. HCT116-mock-RNA-KO was knocked-out-mock-gene based HCT116 with MTAP wildtype genotype. The base medium for HCT116 isogenic pair is RPMI 1640, HEPES (Gibco, 22400105). To make the complete growth medium, added the following components to the base medium: fetal bovine serum to a final concentration of 10% (Gibco, 10099-141C). The cell line was grown in a humidified 5% CO2 atmosphere at 37° C. and regularly tested for the presence of mycoplasma with MpcoAlert™ PLUS Mycoplasma Detection Kit (Lonzak LT07-710).
(§2) • Seeded HCT116-mock-RNA-KO (4E2/well) or HCT116-MTAP-KO (4E2/well) cells into a 96-well plate (Greiner: 655090), 100 μL/well. • Incubated at 37° C., 5% CO2, overnight. • Added 50 μL fresh growth medium containing serial dilution of test compounds for a final test compound concentration of 0-10 μM to each well. • Incubated at 37° C., 5% CO2, 6 days. • The cell viability was detected by Cell Titer-Glo (Promega, G7573). Added 70 μL of CeliTiter-Glo® reagent in each well. • Incubated at room temperature for 10 minutes to stabilize luminescent signal. • Analyzed with Microplate Reader (TECAN, SPARK) and fit IC50 using Prism® 9.

A further experiment has as its system HCT116-mock-RNA-KO. Kind of experiment: Cell killing in HCT116 isogenic pair (Cell Titer-Glo viability), mock knock-out cells with MTAP wildtype genotype. The settings on record: Homo sapiens, HCT-116, 144 h, 6 days incubation, 0-10 μM. The experiment is classed as cell-based, human.
From the text: as §1, §2

The structures appear in SMILES notation. A value given as a limit tells only on which side of the number the result lay.

As to `CCN(C(=O)c1cc2nc(N)c3c(c2[nH]1)COC3)[C@@H]1COCc2cc(Cl)ccc21` [Example 73, (S)-5-amino-N-(7-chloroisochroman-4-yl)-N-ethyl-6,8-dihydro-1H-furo[3,4-d]pyrrolo[3,2-b]pyridine-2-carboxamide], the IC50 in the experiment with HCT116-MTAP-KO amounted to 34 nM; in the experiment with HCT116-mock-RNA-KO, 2490 nM.

On to `CC(C)C(=O)N1Cc2cc(C(F)(F)F)ccc2[C@@H](N(C)C(=O)c2cc3nc(N)c4c(c3[nH]2)COC4)C1` [Example 103, (R)-5-amino-N-(2-isobutyryl-7-(trifluoromethyl)-1,2,3,4-tetrahydroisoquinolin-4-yl)-N-methyl-6,8-dihydro-1H-furo[3,4-d]pyrrolo[3,2-b]pyridine-2-carboxamide], for which the IC50 in the experiment with HCT116-MTAP-KO was determined as 272 nM; in the experiment with HCT116-mock-RNA-KO, 2450 nM.

Take `CN(C(=O)c1cc2nc(N)c3c(c2[nH]1)COC3)[C@@H]1COCc2cc(C(F)(F)F)cc(F)c21` [Example 82, (S)-5-amino-N-(5-fluoro-7-(trifluoromethyl)isochroman-4-yl)-N-methyl-6,8-dihydro-1H-furo[3,4-d]pyrrolo[3,2-b]pyridine-2-carboxamide]: the IC50 in the experiment on HCT116-MTAP-KO came to 13 nM; with HCT116-mock-RNA-KO it was 1840 nM.

As to `CCN(C(=O)c1cc2nc(N)c3c(c2[nH]1)CO[C@@H]3C)[C@H](C)c1ccc(C(F)(F)F)cc1F` [Example 126, (R)-5-amino-N-ethyl-N—((R)-1-(2-fluoro-4-(trifluoromethyl)phenyl)ethyl)-6-methyl-6,8-dihydro-1H-furo[3,4-d]pyrrolo[3,2-b]pyridine-2-carboxamide], the IC50 in the experiment on HCT116-MTAP-KO turned out to be 11 nM; with HCT116-mock-RNA-KO, 1720 nM.

With `C[C@H](c1ccc(C(F)(F)F)cc1F)N(C)C(=O)c1cc2nc(N)c3c(c2[nH]1)CO[C@@H]3C` [Example 148, (R)-5-amino-N—((R)-1-(2-fluoro-4-(trifluoromethyl)phenyl)ethyl)-N,6-dimethyl-6,8-dihydro-1H-furo[3,4-d]pyrrolo[3,2-b]pyridine-2-carboxamide], the 50% inhibitory concentration (IC50) is 19 nM with HCT116-MTAP-KO and 2440 nM in the experiment with HCT116-mock-RNA-KO.

Consider `CCN(C(=O)c1cc2nc(N)c3c(c2[nH]1)COC3)[C@H](C)c1ncc(Br)cc1F` [Example 143, (R)-5-amino-N-(1-(5-bromo-3-fluoropyridin-2-yl)ethyl)-N-ethyl-6,8-dihydro-1H-furo[3,4-d]pyrrolo[3,2-b]pyridine-2-carboxamide], for which the IC50 in the experiment with HCT116-MTAP-KO worked out at 11 nM; with HCT116-mock-RNA-KO, 1380 nM.

In the case of `CCC(CC)N(Cc1c(F)cc(C(F)(F)F)cc1F)C(=O)c1cc2nc(N)c3c(c2[nH]1)CO[C@@H]3C` [Example 116, (R)-5-amino-N-(2,6-difluoro-4-(trifluoromethyl)benzyl)-6-methyl-N-(pentan-3-yl)-6,8-dihydro-1H-furo[3,4-d]pyrrolo[3,2-b]pyridine-2-carboxamide], the IC50 in the experiment on HCT116-MTAP-KO came to 6.9 nM; with HCT116-mock-RNA-KO, 269 nM.

Consider `CCN(C(=O)c1cc2nc(N)c3c(c2[nH]1)COC3)[C@@H](C)c1ccc(Br)cc1F` [Example 134, (S)-5-amino-N-(1-(4-bromo-2-fluorophenyl)ethyl)-N-ethyl-6,8-dihydro-1H-furo[3,4-d]pyrrolo[3,2-b]pyridine-2-carboxamide], for which the concentration for half-maximal inhibition (IC50) with HCT116-MTAP-KO stood at 336 nM; in the experiment on HCT116-mock-RNA-KO it was 2880 nM.

For the compound `C[C@H](c1ncc(C(F)(F)F)cc1F)N(C(=O)c1cc2nc(N)c3c(c2[nH]1)COC3)C1CCC1` [Example 155, (R)-5-amino-N-cyclobutyl-N-(1-(3-fluoro-5-(trifluoromethyl)pyridin-2-yl)ethyl)-6,8-dihydro-1H-furo[3,4-d]pyrrolo[3,2-b]pyridine-2-carboxamide], the results for the IC50 in the experiment with HCT116-MTAP-KO and in the experiment on HCT116-mock-RNA-KO were 19 nM and 2250 nM, respectively.

`C[C@H]1OC[C@H](N(C)C(=O)c2cc3nc(N)c4c(c3[nH]2)COC4)c2ccc(Br)cc21` [Example 79, 5-amino-N-((1R,4R)-7-bromo-1-methylisochroman-4-yl)-N-methyl-6,8-dihydro-1H-furo[3,4-d]pyrrolo[3,2-b]pyridine-2-carboxamide]: the IC50 with HCT116-MTAP-KO was determined as 525 nM; in the experiment on HCT116-mock-RNA-KO, 3280 nM.

For the compound `C[C@@H](c1ncc(C(F)(F)F)cc1F)N(C(=O)c1cc2nc(N)c3c(c2[nH]1)COC3)C1CCC1` [Example 156, (S)-5-amino-N-cyclobutyl-N-(1-(3-fluoro-5-(trifluoromethyl)pyridin-2-yl)ethyl)-6,8-dihydro-1H-furo[3,4-d]pyrrolo[3,2-b]pyridine-2-carboxamide], the IC50 is 523 nM in the experiment on HCT116-MTAP-KO and > 10000 nM in the experiment on HCT116-mock-RNA-KO.

As for `CCN(C(=O)c1cc2nc(N)c3c(c2[nH]1)COC3)[C@H](C)c1ncc(N2CCOCC2)cc1F` [Example 132, 5-amino-N-ethyl-N-(1-(3-fluoro-5-morpholinopyridin-2-yl)ethyl)-6,8-dihydro-1H-furo[3,4-d]pyrrolo[3,2-b]pyridine-2-carboxamide], the results for the half-inhibitory concentration (IC50) in the experiment with HCT116-MTAP-KO and in the experiment with HCT116-mock-RNA-KO were 45 nM and > 10000 nM, respectively.

Regarding `CCN(C(=O)c1cc2nc(N)c3c(c2[nH]1)CO[C@@H]3C)[C@@H](C)c1ncc(C(F)(F)F)cc1F` [Example 131, (R)-5-amino-N-ethyl-N—((S)-1-(3-fluoro-5-(trifluoromethyl)pyridin-2-yl)ethyl)-6-methyl-6,8-dihydro-1H-furo[3,4-d]pyrrolo[3,2-b]pyridine-2-carboxamide], the IC50 is 1830 nM with HCT116-MTAP-KO and > 10000 nM in the experiment with HCT116-mock-RNA-KO.

Consider `CN(C(=O)c1cc2nc(N)c3c(c2[nH]1)COC3)[C@H]1CN(C(=O)C2CC2)Cc2cc(C(F)(F)F)ccc21` [Example 101, (R)-5-amino-N-(2-(cyclopropanecarbonyl)-7-(trifluoromethyl)-1,2,3,4-tetrahydroisoquinolin-4-yl)-N-methyl-6,8-dihydro-1H-furo[3,4-d]pyrrolo[3,2-b]pyridine-2-carboxamide], for which the IC50 was 339 nM in the experiment on HCT116-MTAP-KO and 2090 nM in the experiment on HCT116-mock-RNA-KO.

For `C[C@@H](c1cnccn1)N(Cc1ncc(Br)cc1F)C(=O)c1cc2nc(N)c3c(c2[nH]1)COC3` [Example 61, (S)-5-amino-N-((5-bromo-3-fluoropyridin-2-yl)methyl)-N-(1-(pyrazin-2-yl)ethyl)-6,8-dihydro-1H-furo[3,4-d]pyrrolo[3,2-b]pyridine-2-carboxamide], the concentration for half-maximal inhibition (IC50) is 808 nM with HCT116-MTAP-KO and > 10000 nM with HCT116-mock-RNA-KO.

For the compound `CC(C)C(=O)N1Cc2cc(C(F)(F)F)ccc2[C@H](N(C)C(=O)c2cc3nc(N)c4c(c3[nH]2)COC4)C1` [Example 102, (S)-5-amino-N-(2-isobutyryl-7-(trifluoromethyl)-1,2,3,4-tetrahydroisoquinolin-4-yl)-N-methyl-6,8-dihydro-1H-furo[3,4-d]pyrrolo[3,2-b]pyridine-2-carboxamide], the IC50 with HCT116-MTAP-KO is 1.1 nM; in the experiment with HCT116-mock-RNA-KO, 77 nM.

On to `CN(C(=O)c1cc2nc(N)c3c(c2[nH]1)COC3)[C@@H]1COCc2cc(-c3cccnc3)ccc21` [Example 104, (S)-5-amino-N-methyl-N-(7-(pyridin-3-yl)isochroman-4-yl)-6,8-dihydro-1H-furo[3,4-d]pyrrolo[3,2-b]pyridine-2-carboxamide], for which the concentration for half-maximal inhibition (IC50) is 18 nM in the experiment with HCT116-MTAP-KO and 2730 nM with HCT116-mock-RNA-KO.

With `CCN(C(=O)c1cc2nc(N)c3c(c2[nH]1)COC3)[C@@H]1COC2(CC2)c2cc(C(F)(F)F)ccc21` [Example 161, (S)-5-amino-N-ethyl-N-(7′-(trifluoromethyl)spiro[cyclopropane-1,1′-isochroman]-4′-yl)-6,8-dihydro-1H-furo[3,4-d]pyrrolo[3,2-b]pyridine-2-carboxamide], the IC50 was found to be 39 nM in the experiment with HCT116-MTAP-KO and 2800 nM in the experiment on HCT116-mock-RNA-KO.

These data come from patent US20240368177A1, “5-AMINO-6,8-DIHYDRO-1H-FURO[3,4-d]PYRROLO[3,2-b]PYRIDINE-2-CARBOXAMIDE DERIVATIVES AS MTA-COOPERATIVE INHIBITORS OF PRMT5” (BeiGene Switzerland GmbH, priority 2023, published 2024).
